The target of the assay is T1, FLuc-C-HiBiT (Photinus pyralis, UniProt P08659).
T1 construct: firefly luciferase with C-terminal HiBiT tag, E. coli expressed
Put plainly: biochemical. The following applies: enzyme activity, 10 uM ATP; read-out: IC50 or SDR50 (mM) / FLuc E. How it is done:
The enzyme activity of FLuc-N-HiBiT, FLuc-C-HiBiT, and FLuc-C-NLuc was measured similar to P. pyralis firefly luciferase (FLuc) as previously described. […] Compounds and controls were added to each plate as described in Supplementary Data 8 with a Hornet pintool system (Wako Automation). Compounds were incubated with respective enzymes for 30–60 min at room temperature protected from light and covered by solid metal lid to prevent evaporation. […] Luciferin was incubated with FLuc enzyme for 5 min before FLuc activity was then measured on a ViewLux CCD imager (PerkinElmer), with exposure times up to ten seconds with medium to high gain settings. Data were normalized to average no enzyme control as 100% enzyme inhibition and average DMSO neutral control. See Supplementary Table 4 for additional details. As a proof-of-concept target, we appended the sensor protein or corresponding α-peptide to either the N- or C-terminus of the target protein firefly luciferase (FLuc), an ATP cofactor-dependent monooxygenase (Supplementary Fig. 1a) having a broad, well-characterized and accessible ligand pharmacology. For initial characterization of the SDR concept, either NLuc or the 11 amino acid HiBiT tag (α-peptide) and complementary 18 kDa LgBiT subunit (ω-fragment), which self-assemble to reconstitute functional NLuc enzyme[24] were tested. In contrast to the ATP-dependent bioluminescent FLuc enzyme, NLuc generates a bright bioluminescence in an ATP-independent manner from the direct oxidation of furimazine (Supplementary Fig. 1b). […] Next, FLuc-C-NLuc, FLuc-N-HiBiT or FLuc-C-HiBiT were assayed with the same inhibitor in an SDR assay format by monitoring bioluminescence from NLuc or its reconstitution by α-complementation with LgBiT. Measurements of NLuc activity were made either in the absence or presence of the FLuc ATP cofactor, as NLuc bioluminescence is ATP-independent.

Drawing on publication PMC12064818, “A general assay platform to study protein pharmacology using ligand-dependent structural dynamics” (Nature Communications, 2025), this text covers IC50 for 66 molecules.

T1 sequence (P08659 whole entry, looked up): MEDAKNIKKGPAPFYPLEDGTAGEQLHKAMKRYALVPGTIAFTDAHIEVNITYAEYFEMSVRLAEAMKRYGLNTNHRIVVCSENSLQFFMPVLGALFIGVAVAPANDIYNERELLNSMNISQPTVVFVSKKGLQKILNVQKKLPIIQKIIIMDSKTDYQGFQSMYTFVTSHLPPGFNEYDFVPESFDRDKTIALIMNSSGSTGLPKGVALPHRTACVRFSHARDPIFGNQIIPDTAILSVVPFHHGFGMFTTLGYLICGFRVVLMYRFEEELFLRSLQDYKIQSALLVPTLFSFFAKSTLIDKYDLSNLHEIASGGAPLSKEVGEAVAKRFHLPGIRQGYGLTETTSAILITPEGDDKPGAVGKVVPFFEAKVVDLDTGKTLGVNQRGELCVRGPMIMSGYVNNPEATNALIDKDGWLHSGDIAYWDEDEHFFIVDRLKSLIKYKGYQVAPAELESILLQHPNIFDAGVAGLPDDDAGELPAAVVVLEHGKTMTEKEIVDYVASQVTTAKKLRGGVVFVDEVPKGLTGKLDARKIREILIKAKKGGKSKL

Regarding `COc1ccc(F)cc1-c1ccc(COc2ccc3c(cnn3CCC(=O)O)c2)cc1` [NCGC00418072-01], the IC50 was found to be 18 µM.

Turning to `COc1ccc(-c2ccc3ncc(Nc4cc(F)cc(N5CCOCC5)c4)n3n2)cc1OC` [NCGC00412497-01], the IC50 worked out at 11.1 µM.

`COc1ccc(-c2nc(-c3cccc(C(=O)O)c3)no2)cc1` [NCGC00168767-01]: the IC50 was found to be 0.00248 µM.

On to `COc1ccc(-c2cc(N3CCCC(NC(=O)c4cccc5[nH]ccc45)C3)[nH]n2)cc1` (stereo not drawn) [NCGC00437654-01], for which the IC50 came out at 14 µM.

As for `COc1ccccc1CNC(=O)c1ccc2nc(N3CCCCC3)sc2c1` [NCGC00113612-01], the IC50 is more than 30 µM.

As to `CCOc1ccc(-c2cc3c(=O)n(CCNC(=O)c4ccncc4)ccn3n2)cc1` [NCGC00456950-01], the IC50 was 3.51 µM.

As to `COc1ccc(-n2cc(C3=CCN(CCN4CCOCC4)CC3)cn2)cc1` [NCGC00432106-01], the IC50 was 9.89 µM.

Regarding `Cc1ccc(-c2nc(C(=O)N3CCN(c4ccccn4)CC3)no2)cc1` [NCGC00447133-01], the IC50 was found to be 7.85 µM.

For the molecule `COc1ccc(-n2nc3ccc(NC(=O)c4c(OC)cccc4OC)cc3n2)cc1` [NCGC00103168-01], the IC50 was more than 30 µM.

Consider `COc1cccc(C(=O)Nc2ccc(-c3nc4ccc(C)cc4s3)cc2)c1OC` [NCGC00134693-01], for which the IC50 is more than 30 µM.

Turning to `Cc1ccc2oc([C@H]3CCN(Cc4cccs4)C3)nc2c1` [NCGC00397825-01], the IC50 came to 18 µM.

For the molecule `COc1ccc(-c2cc(N3CCCC(NC(=O)c4cc(OC)cc(OC)c4)C3)[nH]n2)cc1` (stereo not drawn) [NCGC00437618-01], the IC50 was 9.89 µM.

Turning to `CSCC(=O)Nc1nn(-c2ccc(F)cc2)c2cccc(N3CCOCC3)c12` [NCGC00439780-01], the IC50 turned out to be 9.89 µM.

On to `O=C(Nc1cc(F)cc(F)c1)Nc1cccc(-c2ccc(N3CCOCC3)nn2)c1` [NCGC00427624-01], for which the IC50 was 3.13 µM.

On to `COc1ccc(CNC(=O)Nc2cccc(-c3ccc(N4CCCCC4)nn3)c2)cc1` [NCGC00427646-01], for which the IC50 came to 0.495 µM.

Turning to `CC(=O)NC1(C)CCN(Cc2cccc(-c3ccc4c(ccn4C)c3)c2)C1` (stereo not drawn) [NCGC00410415-01], the IC50 was 10.1 µM.

For the molecule `Cc1ccc(C(=O)Nc2cccc(-c3ccc(N4CCN(C)CC4)nn3)c2)cc1C` [NCGC00427552-01], the IC50 was determined as 3.94 µM.

As for `Cc1ccc2c(c1)sc1nc(-c3cc4ccccc4oc3=O)cn12` [NCGC00098323-01], the IC50 amounted to 0.248 µM.

For `CN1CCc2nc3sc(C(=O)Nc4cccc(C#N)c4)c(N)c3cc2C1` [NCGC00103003-01], the IC50 is more than 30 µM.

Regarding `Cc1ccc(-c2noc([C@@H]3Cc4[nH]cnc4CN3C(=O)Nc3cccc(F)c3)n2)cc1` [NCGC00401633-01], the IC50 turned out to be 20.2 µM.

Consider `CCC(CC)COC(=O)[C@H](C)N[P@](=O)(OC[C@H]1O[C@@](C#N)(c2ccc3c(N)ncnn23)[C@H](O)[C@@H]1O)Oc1ccccc1` [NCGC00686694-05], for which the IC50 was more than 30 µM.

Take `COc1ccc(-c2nc3ccccc3s2)cc1NC(=O)c1ccc(F)cc1` [NCGC00103032-01]: the IC50 is more than 30 µM.

With `O=C(CSc1ccc(F)cc1)Nc1ccccc1-c1nc2ccccc2s1` [NCGC00274247-01], the IC50 was more than 30 µM.

Turning to `Cc1ccc(-c2ncc(NC(=O)c3ccccc3F)cn2)cc1` [NCGC00432887-01], the IC50 amounted to 1.97 µM.

Take `CC(C)Oc1ccc(C(=O)Nc2ccc(-c3nc4ccccc4s3)cc2)cc1` [NCGC00119129-01]: the IC50 is more than 30 µM.

Turning to `CCc1ccc(-c2nc(CSCC(=O)NCc3ccc(C)cc3)c(C)o2)cc1` [NCGC00109429-01], the IC50 was 14 µM.

With `O=C(Nc1ccccc1)N1CCc2nc(C3CC3)nc(-c3ccc(Cl)cc3)c2C1` [NCGC00480419-01], the IC50 was more than 30 µM.

Turning to `CC(C)(Oc1nn(CC2CC2)c2ccc(CN3CCCC3)cc12)C(=O)NC1CCOCC1` [NCGC00419513-01], the IC50 is more than 30 µM.

For `CCc1ccc(NC(=O)c2cc3ccccn3n2)cc1` [NCGC00127901-01], the IC50 worked out at 1.76 µM.

Turning to `Cc1cc(-c2cc3c(cn2)CN(Cc2cccs2)CCN3)ccn1` [NCGC00411196-01], the IC50 is 11.4 µM.

Take `CCOC1CCCN(c2ncnc3c2cnn3-c2ccccc2)C1` (stereo not drawn) [NCGC00616559-01]: the IC50 was 9.89 µM.

Regarding `COc1ccc(OCC(=O)Nc2ccc(O)c(-c3nc4ccccc4s3)c2)cc1` [NCGC00099132-01], the IC50 was more than 30 µM.

Take `CCn1cc(-c2ccc(C)cc2)cc1C(=O)O` [NCGC00432661-01]: the IC50 is more than 30 µM.

Consider `Cc1ccc(-n2ncc3c(N4CCC(Cc5ccccc5)CC4)ncnc32)cc1C` [NCGC00139123-01], for which the IC50 was more than 30 µM.

As to `O=C(NCc1ccc2c(c1)OCO2)C1CCN(c2cc(C(F)(F)F)ncn2)CC1` [NCGC00455586-01], the IC50 came to 11.1 µM.

For the molecule `CCOC(=O)N1CCc2c(sc(NCc3sccc3C)c2C(=O)Nc2ccc(OC)cc2OC)C1` [NCGC00140803-01], the IC50 worked out at 4.95 µM.

For `O=C(O)C1(CCc2ccccc2)CCCN(c2ncnc3[nH]cnc23)C1` (stereo not drawn) [NCGC00432626-01], the IC50 was more than 30 µM.

As to `O=C(Nc1ccc2c(c1)OCCO2)N1CCCC(c2nc(C3CCOCC3)no2)C1` (stereo not drawn) [NCGC00475594-01], the IC50 is 11.1 µM.

Turning to `O=C(Nc1ccc2c(c1)OCCO2)N1CC(c2nc(CCOCC3CC3)no2)C1` [NCGC00464361-01], the IC50 was 9.89 µM.

With `COc1cccc(CN2CCc3nc(Nc4ccc5c(c4)OCCO5)ncc3C2)c1` [NCGC00131180-01], the IC50 worked out at 11.1 µM.

Regarding `COc1ccc(-c2cc(N3CCCC(NC(=O)c4ccc(OC)cc4OC)C3)[nH]n2)cc1` (stereo not drawn) [NCGC00437622-01], the IC50 stood at 11.1 µM.

On to `Nc1c(C(=O)Nc2ccc(C(=O)O)cc2)sc2nc3c(cc12)CCCC3` [NCGC00100367-01], for which the IC50 is 0.176 µM.

Consider `CN(C)c1cccc(C(=O)NC2CCN(c3cc(-c4ccc(Cl)cc4)n[nH]3)C2)c1` (stereo not drawn) [NCGC00437918-01], for which the IC50 worked out at 11.1 µM.

Turning to `CCOc1ccc(NC(=O)CCc2c(C)nc3cc(-c4ccc(Cl)cc4)nn3c2C)cc1` [NCGC00110024-01], the IC50 amounted to 2.79 µM.

Turning to `Cc1c(-c2ccc(F)cc2)[nH]c2ccc(CNC(=O)CN3CCOC3=O)cc12` [NCGC00442659-01], the IC50 is 11.1 µM.

Consider `CN1CCN(c2ccc(-c3cc4c(ccn4C)c(C(=O)NCCN4CCNC4=O)n3)cc2)CC1` [NCGC00411611-01], for which the IC50 amounted to 12.4 µM.

For the molecule `COc1ccc(C(=O)Nc2cc([S+](=O)([O-])c3ccc(Cl)cc3)c(O)c(C)c2C)cc1` [NCGC00102574-01], the IC50 was more than 30 µM.

Consider `Cc1ccc2nc(-c3ccc(NC(=O)c4ccc([S+](C)(=O)[O-])cc4)cc3)sc2c1` [NCGC00134160-01], for which the IC50 is more than 30 µM.

On to `COc1ccc(-c2ncc3c(n2)OCCN(Cc2ccccc2)C3=O)cc1` [NCGC00413617-01], for which the IC50 was 18 µM.

As to `Oc1ccc(-c2nc(C3CC3)nc3c2CCN(Cc2cccc(F)c2)CC3)cc1` [NCGC00480349-01], the IC50 was more than 30 µM.

On to `COc1ccc2nc(-c3ccc(N4CCN(C(=O)OC(C)(C)C)CC4)cc3)sc2c1` [NCGC00167609-02], for which the IC50 was 14 µM.

On to `CCCCC(=O)Nc1cccc(-c2nc3ccccc3s2)c1` [NCGC00119159-01], for which the IC50 was 11.1 µM.

On to `COc1cccc(C(=O)Nc2ccc(-c3nc4ccccc4s3)cc2Cl)c1` [NCGC00137802-01], for which the IC50 was more than 30 µM.

For `NC(=O)C1CCN(c2ncnc3c2cnn3-c2cccc(Cl)c2)CC1` [NCGC00139154-01], the IC50 is more than 30 µM.

Turning to `COc1ccc(Nc2cc3c(nc2OC)nc(CCc2ccccc2)n3C)cn1` [NCGC00417814-01], the IC50 amounted to 20.2 µM.

As for `Clc1ccc(-c2cc3c(cn2)CN(Cc2ccncc2)CCN3)cc1` [NCGC00411101-01], the IC50 was 16.1 µM.

With `CCC(=O)N1CCN(c2nc3c(s2)CC(C(=O)O)CC3)CC1` (stereo not drawn) [NCGC00432761-01], the IC50 was 11.1 µM.

For `Cc1nn(-c2ccc(C(C)(C)C)cc2)c(C)c1[C@@H]1C=C[C@@H](NC(=O)COCC(=O)O)C1` [NCGC00400262-01], the IC50 turned out to be 20.2 µM.

On to `COc1cccc(CN2CCNc3cc(Nc4cccnc4)ncc3C2)c1` [NCGC00411206-01], for which the IC50 was 18 µM.

Turning to `C#CCn1c(/C=C/c2ccc(Cl)cc2)nc2ccccc21` [NCGC00114864-01], the IC50 turned out to be 0.624 µM.

Turning to `CC(=O)c1ccc(NC(=O)CSc2nnc(NC(=O)Nc3ccccc3)s2)cc1` [NCGC00136900-01], the IC50 came to 0.881 µM.

Regarding `c1ccc(-n2ncc3c(N4CCCCC4)ncnc32)cc1` [NCGC00081373-03], the IC50 stood at 0.881 µM.

Regarding `Cc1nnc(SCc2ccccc2)c2cc3sccc3n12` [NCGC00122277-01], the IC50 was determined as 14 µM.

Regarding `Clc1cccc(-c2nc3ccccc3s2)c1` [NCGC00687703-01], the IC50 stood at 8.81 µM.

Consider `Cc1cc(-c2cc3c(cn2)CN(Cc2ccccn2)CCN3)ccn1` [NCGC00411150-01], for which the IC50 worked out at 20.2 µM.

As to `CCCNc1cc(N2CCC(CCC(=O)Nc3ccc4c(c3)OCCO4)CC2)ncn1` [NCGC00470245-01], the IC50 stood at 9.89 µM.
